Measured values taken from US12239632B2, “Asymmetric allyl tryptamines” (Alexander Shulgin Research Institute, Inc., priority 2021, dated 2025).
Structures can show the parent of a compound that is named as a salt.

How the values were obtained:
DAT = target: T1, DAT (Homo sapiens, UniProt Q01959); test: Neurotransmitter transporter uptake assay, DAT blocker mode; format: cell-based
T1 construct: expressed in transfected cells
Procedure: (§1) Methods—Monoamine Transporter Assay: Neurotransmitter uptake via transporters was measured using the Neurotransmitter Transporter Uptake Assay Kit from Molecular Devices. […] Increased intracellular fluorescence intensity following uptake of biogenic amine neurotransmitters via transporters is measured and can be run in a kinetic or endpoint mode.
(§2) Compound was added and the mixture was incubated. Following compound incubation, dye was added to the wells and the plate was re-incubated. Microplates were then transferred to a PerkinElmer Envision™ instrument for fluorescence signal detection.
(§3) Compound activity was analyzed using CBIS data analysis (ChemInnovation, CA). For blocker mode assays, percentage inhibition was calculated using the following formula: % Inhibition=100%×(1−(mean RLU of test sample−mean RLU of vehicle control)/(mean RLU of positive control−mean RLU of vehicle control)).

NAV1.5 = target: T2, NAV1.5 (Homo sapiens, UniProt Q14524); test: FLIPR membrane potential ion channel assay, NAV1.5 blocker; format: cell-based
T2 construct: expressed in transfected cells
Procedure: (§4) Methods—Ion Channel Assay: Membrane potential changes were measured using the FLIPR® Membrane potential Assay Kit. A fluorescent indicator dye in combination with a quencher was used to reflect real-time membrane potential changes associated with ion channel activation and ion transporter proteins. Calcium channel CAV1.2, potassium channel hERG, and sodium channel NAV1.5 were tested.
(§5) To determine agonist and antagonist activity, cell lines were expanded from freezer stocks, seeded into multi-well microplates, and incubated at 37° C. Cells were then loaded with dye and incubated again.
(§6) For agonist determination, cells were incubated with the sample a different dilutions to induce a response. For antagonist determination, cells were pre-incubated with the sample at different dilutions. Following dye administration, the sample was added to the cells in the presence of EC80 agonist and then re-incubated at room temperature in the dark.
(§7) For antagonist mode assays, percentage inhibition was calculated using the following formula: % Inhibition=100%×(1−(mean RLU of test sample−mean RLU of vehicle control)/(mean RLU of EC80 control−mean RLU of vehicle control)).

hERG = target: T3, hERG (Homo sapiens, UniProt Q12809); test: FLIPR membrane potential ion channel assay, hERG blocker; format: cell-based
T3 construct: expressed in transfected cells
Procedure: as §4, §5, §6, §7

HTR1B = target: T4, HTR1B (Homo sapiens, UniProt P28222); test: In vitro functional activity, HTR1B agonist mode; format: cell-based
T4 construct: expressed in transfected cells
Procedure: (§8) Such activity was determined to assess potential neuromodulatory activity and safety liabilities.

HTR2B [1] = target: T5, HTR2B (Homo sapiens, UniProt P41595); test: Calcium mobilization assay, HTR2B antagonist mode; format: cell-based
T5 construct: expressed in transfected cells
Procedure: Activation of the GPCR results in the release of calcium from intracellular stores and an increase in dye fluorescence that can be measured.
Cell lines were expanded from freezer stocks and seeded into multi-well microplates. Then, the plates were incubated at 37° C. for an appropriate amount of time and loaded with Dye Loading buffer. To determine compound agonist activity, cells were incubated with the sample to induce a response, and HBSS/20 mM Hepes was added using a FLIPR Tetra (MDS). Activity was measured on a FLIPR Tetra. Calcium mobilization was monitored for 2 minutes.
To determine compound antagonist activity, cells were pre-incubated with the sample followed by an post-incubation administration of the compound with 3×EC80 agonist using FLIPR. Compound antagonist activity was measured on a FLIPR Tetra (MDS) and calcium mobilization was monitored for 2 minutes.
For antagonist mode assays, percentage inhibition was calculated using the following formula: % Inhibition=100%×(1−(mean RFU of test sample−mean RFU of vehicle control)/(mean RFU of EC80 control−mean RFU of vehicle control)).

CAV1.2 = target: T6, CAV1.2 (Homo sapiens, UniProt Q13936); test: FLIPR membrane potential ion channel assay, CAV1.2 blocker; format: cell-based
T6 construct: expressed in transfected cells
Procedure: as §4, §5, §6, §7

HTR2B [2] = target: T5, HTR2B; test: Calcium mobilization assay, HTR2B agonist mode; format: cell-based
Procedure: (§9) Compound activity was analyzed using CBIS data analysis suite (ChemInnovation, CA). For agonist mode assays, percentage activity was calculated using the following formula: % Activity=100%×(mean RFU of test sample−mean RFU of vehicle control)/(mean MAX RFU control ligand −mean RFU of vehicle control).

NET = target: T7, NET (Homo sapiens, UniProt P23975); test: Neurotransmitter transporter uptake assay, NET blocker mode; format: cell-based
T7 construct: expressed in transfected cells
Procedure: as §1, §2, §3

SERT = target: T8, SERT (Homo sapiens, UniProt P31645); test: cell-based; details: blocker mode; read-out: EC50/IC50, SERT (Blocker)
T8 construct: expressed in transfected cells
Procedure: as §1, §2, §3

HTR2A [3] = target: T9, HTR2A (Homo sapiens, UniProt P28223); test: Calcium mobilization assay, HTR2A antagonist mode; format: cell-based
T9 construct: expressed in transfected cells
Procedure: Cell lines were expanded from freezer stocks and seeded into multi-well microplates. Then, the plates were incubated at 37° C. for an appropriate amount of time and loaded with Dye Loading buffer. […] Activity was measured on a FLIPR Tetra. Calcium mobilization was monitored for 2 minutes.

ADRA2A = target: T10, ADRA2A (Homo sapiens, UniProt P08913); test: In vitro functional activity, ADRA2A antagonist mode; format: cell-based
T10 construct: expressed in transfected cells
T10 sequence (P08913 1-465): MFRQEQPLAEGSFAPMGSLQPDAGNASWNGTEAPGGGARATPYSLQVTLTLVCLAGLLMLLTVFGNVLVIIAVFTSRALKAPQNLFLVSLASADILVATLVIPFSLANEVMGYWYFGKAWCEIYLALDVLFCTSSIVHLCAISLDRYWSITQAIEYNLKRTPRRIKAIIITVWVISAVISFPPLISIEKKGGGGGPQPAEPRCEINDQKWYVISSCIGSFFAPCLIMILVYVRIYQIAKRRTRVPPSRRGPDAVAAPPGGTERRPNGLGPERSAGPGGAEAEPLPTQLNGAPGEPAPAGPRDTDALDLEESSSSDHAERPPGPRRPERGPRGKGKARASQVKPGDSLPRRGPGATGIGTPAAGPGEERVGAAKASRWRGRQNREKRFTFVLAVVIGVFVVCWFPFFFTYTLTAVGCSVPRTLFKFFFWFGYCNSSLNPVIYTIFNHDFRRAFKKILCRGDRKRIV
Procedure: (§10) The assay monitors the activation of a GPCR via Gi and Gs secondary messenger signaling, using ß-Gal as a functional reporter. […] To determine Gi/Gs agonism, media was aspirated from cells and replaced with 15 μL 2:1 HBSS/10 mM HEPES:cAMP XS+Ab reagent. Concentrated (4×) test compound in assay buffer was added to cells and incubated at 37° C. or room temperature for 30 or 60 minutes. For Gi agonist activation, cells were incubated with EC80 forskolin in addition to a test compound. Vehicle concentration was 1%.

MAOA = target: T11, MAOA (Homo sapiens, UniProt P21397); test: MAO-A enzyme assay (kynuramine substrate); format: biochemical
T11 construct: purchased Sigma
T11 sequence (P21397 1-527): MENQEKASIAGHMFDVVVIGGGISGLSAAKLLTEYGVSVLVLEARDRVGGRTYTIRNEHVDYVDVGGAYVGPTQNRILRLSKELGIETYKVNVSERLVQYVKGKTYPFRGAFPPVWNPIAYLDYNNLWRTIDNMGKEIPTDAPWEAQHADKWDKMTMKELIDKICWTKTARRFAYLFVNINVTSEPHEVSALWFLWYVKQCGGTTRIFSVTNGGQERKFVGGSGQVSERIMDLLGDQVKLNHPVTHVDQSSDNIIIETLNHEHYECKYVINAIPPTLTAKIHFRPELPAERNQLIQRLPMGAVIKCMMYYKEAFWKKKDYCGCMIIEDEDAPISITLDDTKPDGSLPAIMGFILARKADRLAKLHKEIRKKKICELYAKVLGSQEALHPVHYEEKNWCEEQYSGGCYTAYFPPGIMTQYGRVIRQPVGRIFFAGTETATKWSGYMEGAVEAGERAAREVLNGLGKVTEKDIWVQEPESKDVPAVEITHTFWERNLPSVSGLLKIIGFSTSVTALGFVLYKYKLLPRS
Procedure: Methods—Enzyme Assays: Enzymatic activity was determined by measuring either the consumption of substrate or production of product over time. For MAO-A (Sigma), enzyme and test compound were preincubated for 15 minutes at 37° C. before substrate addition. The reaction was initiated by addition of kynuramine and incubated at 37° ° C. for 30 minutes. The reaction was terminated by addition of NaOH. The amount of 4-hydroxyquinoline formed was determined through spectrofluorimetric readout with the emission detection at 380 nm and excitation wavelength 310 nm.

HTR2A [4] = target: T9, HTR2A; test: Calcium mobilization assay, HTR2A agonist mode; format: cell-based; details: for agonist activity at HTR2A: agonist mode
Procedure: as §9

ADRA1A = target: T12, ADRA1A (Homo sapiens, UniProt P35348); test: In vitro functional activity, ADRA1A antagonist mode; format: cell-based
T12 construct: expressed in transfected cells
T12 sequence (P35348 1-466): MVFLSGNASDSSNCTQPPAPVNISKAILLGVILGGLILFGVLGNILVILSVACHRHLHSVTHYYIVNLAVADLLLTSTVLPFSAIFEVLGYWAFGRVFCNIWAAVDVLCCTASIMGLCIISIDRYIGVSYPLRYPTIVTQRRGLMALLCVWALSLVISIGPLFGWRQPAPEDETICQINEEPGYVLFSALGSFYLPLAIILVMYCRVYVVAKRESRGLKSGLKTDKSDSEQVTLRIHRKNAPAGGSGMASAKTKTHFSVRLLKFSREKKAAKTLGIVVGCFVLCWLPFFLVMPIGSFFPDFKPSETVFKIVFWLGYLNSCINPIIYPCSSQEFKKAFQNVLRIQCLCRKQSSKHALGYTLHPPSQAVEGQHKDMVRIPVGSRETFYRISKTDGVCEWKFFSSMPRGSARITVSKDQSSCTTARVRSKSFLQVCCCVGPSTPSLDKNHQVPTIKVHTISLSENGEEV
Procedure: as §10

HRH1 = target: T13, HRH1 (Homo sapiens, UniProt P35367); test: cell-based; format: cell-based; details: antagonist mode; for IC50: read-out: EC50/IC50, HRH1 (Antagonist)
T13 construct: expressed in transfected cells
Procedure: as §8

HTR6 = target: T14, HTR6 (Homo sapiens, UniProt P50406); test: PathHunter beta-Arrestin assay, HTR6 agonist mode; format: cell-based
T14 construct: expressed in transfected cells
Procedure: The assay monitors restoration of ß-galactosidase (β-Gal) as a marker of GPCR activation and recruitment of β-Arrestin to the receptor.
3.5 μL of concentrated sample was added to cells and incubated at 37° C. or room temperature for 90 to 180 minutes. Vehicle concentration was 1%.
Assay signal was generated through a single addition of 50% v/v of PathHunter Detection reagent cocktail, followed by a one hour incubation at room temperature. Microplates were read following signal generation with a plate reader set to detect chemiluminescent signals. Compound activity was analyzed using CBIS data analysis suite (ChemInnovation, CA).

DRD2S = target: T15, DRD2S (Homo sapiens, UniProt P14416); test: HitHunter cAMP assay, DRD2S agonist mode; format: cell-based
T15 construct: expressed in transfected cells
Procedure: as §10
Compound activity was analyzed using CBIS data analysis suite (ChemInnovation, CA). For Gs agonist mode assays, percentage activity was calculated using the following formula: % Activity=100%×(mean RLU of test sample−mean RLU of vehicle control)/(mean RLU of MAX control−mean RLU of vehicle control).
For Gi agonist mode assays, percentage activity was calculated using the following formula: % Activity=100%×(1−(mean RLU of test sample−mean RLU of MAX control)/(mean RLU of vehicle control−mean RLU of MAX control)).

HTR1A = target: T16, HTR1A (Homo sapiens, UniProt P08908); test: In vitro functional activity, HTR1A agonist mode; format: cell-based
T16 construct: expressed in transfected cells
T16 sequence (P08908 1-422): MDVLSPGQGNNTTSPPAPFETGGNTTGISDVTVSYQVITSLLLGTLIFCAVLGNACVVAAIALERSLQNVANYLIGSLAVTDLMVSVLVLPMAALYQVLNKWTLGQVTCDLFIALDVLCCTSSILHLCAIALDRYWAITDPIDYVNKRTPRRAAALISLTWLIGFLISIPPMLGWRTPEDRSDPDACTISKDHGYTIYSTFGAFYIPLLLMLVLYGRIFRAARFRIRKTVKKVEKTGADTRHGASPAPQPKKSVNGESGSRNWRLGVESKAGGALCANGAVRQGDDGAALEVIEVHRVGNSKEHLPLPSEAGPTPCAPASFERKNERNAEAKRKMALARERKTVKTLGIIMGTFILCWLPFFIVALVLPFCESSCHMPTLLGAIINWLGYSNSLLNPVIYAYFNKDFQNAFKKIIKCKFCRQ
Procedure: as §8

T1 sequence (Q01959 whole entry): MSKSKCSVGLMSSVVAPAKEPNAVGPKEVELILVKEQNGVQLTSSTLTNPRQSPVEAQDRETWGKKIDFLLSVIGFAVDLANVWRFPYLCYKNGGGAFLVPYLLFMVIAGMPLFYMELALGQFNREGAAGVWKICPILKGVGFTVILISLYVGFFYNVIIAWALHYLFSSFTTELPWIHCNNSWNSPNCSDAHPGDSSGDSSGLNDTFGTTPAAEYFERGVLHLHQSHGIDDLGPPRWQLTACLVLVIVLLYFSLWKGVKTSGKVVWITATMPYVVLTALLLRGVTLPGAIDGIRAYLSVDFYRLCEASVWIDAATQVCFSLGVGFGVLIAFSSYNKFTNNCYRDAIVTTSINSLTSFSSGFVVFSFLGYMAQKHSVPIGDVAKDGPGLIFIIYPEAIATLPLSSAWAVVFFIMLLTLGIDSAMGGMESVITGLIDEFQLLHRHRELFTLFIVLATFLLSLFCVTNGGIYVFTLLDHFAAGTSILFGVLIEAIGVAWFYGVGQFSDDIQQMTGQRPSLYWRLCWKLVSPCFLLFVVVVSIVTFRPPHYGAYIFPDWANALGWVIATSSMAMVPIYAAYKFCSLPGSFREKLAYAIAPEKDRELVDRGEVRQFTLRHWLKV
T4 sequence (P28222 whole entry): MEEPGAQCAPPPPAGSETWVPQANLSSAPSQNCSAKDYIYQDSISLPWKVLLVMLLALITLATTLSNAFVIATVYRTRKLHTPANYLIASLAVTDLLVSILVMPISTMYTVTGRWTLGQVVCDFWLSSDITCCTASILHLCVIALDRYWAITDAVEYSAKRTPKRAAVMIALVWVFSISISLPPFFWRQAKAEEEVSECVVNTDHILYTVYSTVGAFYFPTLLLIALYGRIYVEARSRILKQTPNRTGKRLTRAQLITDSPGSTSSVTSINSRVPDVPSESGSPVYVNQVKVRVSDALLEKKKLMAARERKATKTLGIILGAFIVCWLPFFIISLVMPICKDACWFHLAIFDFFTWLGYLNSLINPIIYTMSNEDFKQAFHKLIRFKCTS
T13 sequence (P35367 whole entry): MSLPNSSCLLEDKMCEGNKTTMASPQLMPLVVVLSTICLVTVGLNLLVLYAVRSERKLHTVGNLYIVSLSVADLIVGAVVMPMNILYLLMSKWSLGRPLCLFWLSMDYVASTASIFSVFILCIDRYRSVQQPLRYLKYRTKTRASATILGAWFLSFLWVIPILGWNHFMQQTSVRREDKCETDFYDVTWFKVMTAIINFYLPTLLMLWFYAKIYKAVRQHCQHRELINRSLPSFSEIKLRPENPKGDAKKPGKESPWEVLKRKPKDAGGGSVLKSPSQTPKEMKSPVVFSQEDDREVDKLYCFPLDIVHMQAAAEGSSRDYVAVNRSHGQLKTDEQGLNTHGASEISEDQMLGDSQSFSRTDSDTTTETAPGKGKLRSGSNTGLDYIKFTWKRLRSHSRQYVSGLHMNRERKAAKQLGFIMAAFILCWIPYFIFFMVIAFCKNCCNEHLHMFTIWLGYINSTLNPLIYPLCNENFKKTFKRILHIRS
T7 sequence (P23975 whole entry): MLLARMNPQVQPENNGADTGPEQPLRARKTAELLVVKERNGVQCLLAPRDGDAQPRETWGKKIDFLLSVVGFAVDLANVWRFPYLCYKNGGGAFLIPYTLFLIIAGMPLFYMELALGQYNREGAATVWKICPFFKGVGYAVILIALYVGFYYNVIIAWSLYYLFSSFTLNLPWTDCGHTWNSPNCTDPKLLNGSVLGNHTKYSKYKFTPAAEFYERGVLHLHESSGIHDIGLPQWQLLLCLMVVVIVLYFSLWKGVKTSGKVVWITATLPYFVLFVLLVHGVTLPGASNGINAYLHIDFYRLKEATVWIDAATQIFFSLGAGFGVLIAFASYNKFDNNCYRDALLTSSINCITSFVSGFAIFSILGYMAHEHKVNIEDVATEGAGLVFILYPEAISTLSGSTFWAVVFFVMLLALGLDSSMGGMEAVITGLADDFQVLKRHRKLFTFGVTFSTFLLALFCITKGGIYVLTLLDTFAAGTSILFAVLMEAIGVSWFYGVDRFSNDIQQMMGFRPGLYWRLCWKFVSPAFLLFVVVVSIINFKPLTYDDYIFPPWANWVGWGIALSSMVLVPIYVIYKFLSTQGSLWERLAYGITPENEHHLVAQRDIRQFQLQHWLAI
T9 sequence (P28223 whole entry): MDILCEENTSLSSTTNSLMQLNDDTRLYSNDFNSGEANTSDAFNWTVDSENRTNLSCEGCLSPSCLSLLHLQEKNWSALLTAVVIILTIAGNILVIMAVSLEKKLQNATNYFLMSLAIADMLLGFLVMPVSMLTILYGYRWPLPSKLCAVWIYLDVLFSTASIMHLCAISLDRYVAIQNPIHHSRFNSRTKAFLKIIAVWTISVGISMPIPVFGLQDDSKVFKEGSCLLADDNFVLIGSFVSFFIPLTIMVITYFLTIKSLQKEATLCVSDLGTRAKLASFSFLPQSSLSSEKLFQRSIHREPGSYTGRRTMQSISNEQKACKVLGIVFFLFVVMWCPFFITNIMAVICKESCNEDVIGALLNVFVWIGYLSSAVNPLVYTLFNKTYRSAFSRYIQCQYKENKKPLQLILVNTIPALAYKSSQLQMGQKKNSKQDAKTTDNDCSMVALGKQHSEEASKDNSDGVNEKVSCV
T3 sequence (Q12809 whole entry): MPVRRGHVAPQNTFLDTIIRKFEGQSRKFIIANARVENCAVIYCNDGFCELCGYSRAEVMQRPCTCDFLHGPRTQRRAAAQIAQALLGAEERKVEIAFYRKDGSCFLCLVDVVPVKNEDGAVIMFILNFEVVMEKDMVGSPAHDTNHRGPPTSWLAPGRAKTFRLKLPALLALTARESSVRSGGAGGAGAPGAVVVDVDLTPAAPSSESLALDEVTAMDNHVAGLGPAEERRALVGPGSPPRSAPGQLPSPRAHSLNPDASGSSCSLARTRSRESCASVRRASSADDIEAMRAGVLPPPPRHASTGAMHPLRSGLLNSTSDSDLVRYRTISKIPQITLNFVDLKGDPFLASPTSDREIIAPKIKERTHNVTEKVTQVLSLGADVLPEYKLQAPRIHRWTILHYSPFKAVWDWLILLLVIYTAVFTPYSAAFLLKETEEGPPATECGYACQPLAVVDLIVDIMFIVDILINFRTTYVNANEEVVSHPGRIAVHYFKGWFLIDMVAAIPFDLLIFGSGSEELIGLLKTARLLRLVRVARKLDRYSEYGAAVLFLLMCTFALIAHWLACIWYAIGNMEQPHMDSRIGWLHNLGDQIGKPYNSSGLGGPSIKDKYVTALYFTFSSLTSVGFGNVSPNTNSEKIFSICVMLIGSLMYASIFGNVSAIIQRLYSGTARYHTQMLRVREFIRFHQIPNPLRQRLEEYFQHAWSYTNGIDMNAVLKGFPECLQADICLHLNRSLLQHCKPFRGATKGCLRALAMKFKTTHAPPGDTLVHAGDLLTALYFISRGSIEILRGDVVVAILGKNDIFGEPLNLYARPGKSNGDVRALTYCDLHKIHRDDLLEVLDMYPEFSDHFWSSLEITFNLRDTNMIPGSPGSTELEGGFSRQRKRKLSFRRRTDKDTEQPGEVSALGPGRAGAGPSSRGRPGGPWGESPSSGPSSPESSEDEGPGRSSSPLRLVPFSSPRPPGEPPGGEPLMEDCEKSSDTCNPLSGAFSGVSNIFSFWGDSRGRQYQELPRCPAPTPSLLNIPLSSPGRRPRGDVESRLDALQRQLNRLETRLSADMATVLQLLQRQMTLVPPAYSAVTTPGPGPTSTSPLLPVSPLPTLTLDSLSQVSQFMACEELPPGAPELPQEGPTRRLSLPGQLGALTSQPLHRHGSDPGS
T5 sequence (P41595 whole entry): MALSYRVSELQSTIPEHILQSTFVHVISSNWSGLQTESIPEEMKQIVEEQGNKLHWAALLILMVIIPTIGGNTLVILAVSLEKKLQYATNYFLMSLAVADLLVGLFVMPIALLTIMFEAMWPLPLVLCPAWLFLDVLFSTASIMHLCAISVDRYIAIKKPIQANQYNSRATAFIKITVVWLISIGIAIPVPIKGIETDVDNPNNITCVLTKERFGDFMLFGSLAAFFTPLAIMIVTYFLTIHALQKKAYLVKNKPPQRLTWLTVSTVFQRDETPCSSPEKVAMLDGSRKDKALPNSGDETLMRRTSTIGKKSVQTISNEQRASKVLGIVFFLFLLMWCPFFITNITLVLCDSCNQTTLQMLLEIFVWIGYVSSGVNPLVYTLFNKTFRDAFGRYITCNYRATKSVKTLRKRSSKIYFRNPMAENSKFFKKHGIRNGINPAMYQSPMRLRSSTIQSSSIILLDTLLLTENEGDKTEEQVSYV
T14 sequence (P50406 whole entry): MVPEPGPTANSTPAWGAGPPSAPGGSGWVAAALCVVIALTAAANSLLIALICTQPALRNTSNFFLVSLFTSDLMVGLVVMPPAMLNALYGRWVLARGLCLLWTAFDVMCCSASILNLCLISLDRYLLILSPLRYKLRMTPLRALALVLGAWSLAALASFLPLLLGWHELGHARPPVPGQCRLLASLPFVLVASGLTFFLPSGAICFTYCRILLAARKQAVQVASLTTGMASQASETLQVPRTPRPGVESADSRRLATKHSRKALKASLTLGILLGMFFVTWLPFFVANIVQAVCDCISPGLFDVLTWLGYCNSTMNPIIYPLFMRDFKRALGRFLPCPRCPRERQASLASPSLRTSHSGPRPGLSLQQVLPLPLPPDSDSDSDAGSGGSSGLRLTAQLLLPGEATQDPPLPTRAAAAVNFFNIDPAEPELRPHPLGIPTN

SMILES | IC50 (DAT) [µM] | IC50 (NAV1.5) [µM] | IC50 (hERG) [µM] | EC50 (HTR1B) [µM] | IC50 (HTR2B [1]) [µM] | IC50 (CAV1.2) [µM] | EC50 (HTR2B [2]) [µM] | IC50 (NET) [µM] | IC50 (SERT) [µM] | IC50 (HTR2A [3]) [µM] | IC50 (ADRA2A) [µM] | IC50 (MAOA) [µM] | EC50 (HTR2A [4]) [µM] | agonist activity at HTR2A (HTR2A [4]) | IC50 (ADRA1A) [µM] | IC50 (HRH1) [µM] | EC50 (HTR6) [µM] | EC50 (DRD2S) [µM] | EC50 (HTR1A) [µM] | agonistic activity for dopamine receptor D2 short isoform (DRD2S; agonist mode) | further results
C=CCN(CCc1c[nH]c2ccc(OC)cc12)C(C)C [ASR-3001, N-isopropyl-N-(2-(5-methoxy-1H-indol-3-yl)ethyl)prop-2-en-1-amine hydrochloride] | > 10 | > 10 | > 10 | 0.0468 | 0.0511 | > 10 | 0.0874 | > 10 | 6.84 | 0.0646 | > 10 | > 10 | 0.00985 | potent agonist activity | > 10 | > 10 | 0.42 | > 10 | 0.642 | – | –
C=CCN(CCc1c(C)[nH]c2ccccc12)C(C)C [ASR-3002, N-isopropyl-N-(2-(2-methyl-1H-indol-3-yl)ethyl)prop-2-en-1-amine hydrochloride] | > 10 | > 10 | > 10 | 4.95 | 0.498 | > 10 | 1.28 | > 10 | > 10 | 4.13 | 0.383 | > 10 | 2.6 | potent agonist activity | 8.52 | > 10 | 1.68 | 4.48 | > 10 | agonistic activity | –
C=CCN(CCc1c[nH]c2ccccc12)C(C)C [ASR-3003, N-(2-(1H-indol-3-yl)ethyl)-N-isopropylprop-2-en-1-amine hydrochloride] | > 10 | > 10 | > 10 | 0.813 | 0.507 | > 10 | 2.54 | > 10 | 2.37 | 1.41 | 3.72 | > 10 | 0.462 | potent agonist activity | > 10 | 6.29 | 4.26 | 0.183 | > 10 | agonistic activity | antagonistic effects at histamine receptor H1 (HRH1): antagonistic effects; potency for DRD2S (DRD2S; agonist mode): nanomolar level
